Measured values: publication PMC6547681 (Nature Communications, 2019)
Where “and” joins values, the source holds several entries; their conditions need not be identical. Identical values can stand only once.

Test system: BCL-2 WT
Assay: Steady-state competition SPR against immobilised BIMBH3 peptide, BCL-2 WT
Type: binding, human
Protocol: SPR experiments were performed as previously described. […] The lowest concentrations used in direct binding experiments were 1 nM for BIAcore 4000 and 0.1 nM for BIAcore S200 instruments, concentrations below these were below the sensitivity thresholds for the instruments. […] Direct binding experiments were fitted to a 1:1 binding site kinetic model, fitting on and off rates, in BIAevaluation software. For competition experiments steady-state responses were determined in BIAevaluation software according to the software defaults in affinity evaluation mode averaging responses for 5 sec. […] All affinity measurements were performed in at least two independent experiments using independent protein preparations.

O=C(c1cc(-c2cc3c(cc2C(=O)N2Cc4ccccc4C[C@H]2CN2CCOCC2)OCO3)n2c1CCCC2)N(c1ccccc1)c1ccc(O)cc1 [S55746]
S55746 binding weaker than venetoclax (BCL-2 WT): > 10 fold and 10 fold
Raw data values in Figure 3f (SPR response) (S55746 concentration 20, BCL-2 concentration 1 nM, independent experiment 2): 2.733
Raw data values in Figure 3f (SPR response) (S55746 concentration 20, BCL-2 concentration 3 nM, independent experiment 2): 5.054
Raw data values in Figure 3f (SPR response) (S55746 concentration 20, BCL-2 concentration 4 nM, independent experiment 2): 7.385
Raw data values in Figure 3f (SPR response) (S55746 concentration 20, BCL-2 concentration 6 nM, independent experiment 2): 10.4479
Raw data values in Figure 3f (SPR response) (S55746 concentration 20, BCL-2 concentration 8 nM, independent experiment 2): 13.83
Raw data values in Figure 3f (SPR response) (S55746 concentration 20, BCL-2 concentration 9 nM, independent experiment 2): 18.2167
Raw data values in Figure 3f (SPR response) (S55746 concentration 20, BCL-2 concentration 10 nM, independent experiment 1): 14.9942
Raw data values in Figure 3f (SPR response) (S55746 concentration 20, BCL-2 concentration 10 nM, independent experiment 3): 5.545
Raw data values in Figure 3f (SPR response) (S55746 concentration 20, BCL-2 concentration 11 nM, independent experiment 2): 22.9055
Raw data values in Figure 3f (SPR response) (S55746 concentration 20, BCL-2 concentration 12 nM, independent experiment 2): 29.6258
Raw data values in Figure 3f (SPR response) (S55746 concentration 20, BCL-2 concentration 16 nM, independent experiment 2): 52.2757
Raw data values in Figure 3f (SPR response) (S55746 concentration 20, BCL-2 concentration 20 nM, independent experiment 1): 62.0337
Raw data values in Figure 3f (SPR response) (S55746 concentration 20, BCL-2 concentration 20 nM, independent experiment 3): 30.5673
Raw data values in Figure 3f (SPR response) (S55746 concentration 20, BCL-2 concentration 24 nM, independent experiment 2): 194.711
Raw data values in Figure 3f (SPR response) (S55746 concentration 20, BCL-2 concentration 30 nM, independent experiment 1): 78.5463
Raw data values in Figure 3f (SPR response) (S55746 concentration 20, BCL-2 concentration 30 nM, independent experiment 3): 46.9544
Raw data values in Figure 3f (SPR response) (S55746 concentration 20, BCL-2 concentration 40 nM, independent experiment 1): 84.3215
Raw data values in Figure 3f (SPR response) (S55746 concentration 20, BCL-2 concentration 40 nM, independent experiment 2): 278.992
Raw data values in Figure 3f (SPR response) (S55746 concentration 20, BCL-2 concentration 40 nM, independent experiment 3): 55.2753
Raw data values in Figure 3f (SPR response) (S55746 concentration 20, BCL-2 concentration 50 nM, independent experiment 1): 87.889
Raw data values in Figure 3f (SPR response) (S55746 concentration 20, BCL-2 concentration 50 nM, independent experiment 3): 61.4638
Raw data values in Figure 3f (SPR response) (S55746 concentration 20, BCL-2 concentration 60 nM, independent experiment 1): 89.8444
Raw data values in Figure 3f (SPR response) (S55746 concentration 20, BCL-2 concentration 60 nM, independent experiment 3): 66.5259
Raw data values in Figure 3f (SPR response) (S55746 concentration 20, BCL-2 concentration 70 nM, independent experiment 1): 91.3513
Raw data values in Figure 3f (SPR response) (S55746 concentration 20, BCL-2 concentration 70 nM, independent experiment 3): 70.0896
Raw data values in Figure 3f (SPR response) (S55746 concentration 20, BCL-2 concentration 80 nM, independent experiment 1): 91.9809
Raw data values in Figure 3f (SPR response) (S55746 concentration 20, BCL-2 concentration 80 nM, independent experiment 3): 71.977
Raw data values in Figure 3f (SPR response) (S55746 concentration 20, BCL-2 concentration 100 nM, independent experiment 1): 93.8895
Raw data values in Figure 3f (SPR response) (S55746 concentration 20, BCL-2 concentration 100 nM, independent experiment 3): 77.7314
Raw data values in Figure 3f (SPR response) (S55746 concentration 20, BCL-2 concentration 150 nM, independent experiment 1): 96.8618
Raw data values in Figure 3f (SPR response) (S55746 concentration 20, BCL-2 concentration 150 nM, independent experiment 3): 85.769
Raw data values in Figure 3f (SPR response) (S55746 concentration 20, BCL-2 concentration 200 nM, independent experiment 1): 97.7551
Raw data values in Figure 3f (SPR response) (S55746 concentration 20, BCL-2 concentration 200 nM, independent experiment 3): 90.6286
Raw data values in Figure 3f (SPR response) (S55746 concentration 40, BCL-2 concentration 1 nM, independent experiment 2): 1.748
Raw data values in Figure 3f (SPR response) (S55746 concentration 40, BCL-2 concentration 3 nM, independent experiment 2): 3.274
Raw data values in Figure 3f (SPR response) (S55746 concentration 40, BCL-2 concentration 4 nM, independent experiment 2): 4.7441
Raw data values in Figure 3f (SPR response) (S55746 concentration 40, BCL-2 concentration 6 nM, independent experiment 2): 5.884
Raw data values in Figure 3f (SPR response) (S55746 concentration 40, BCL-2 concentration 8 nM, independent experiment 2): 7.971
Raw data values in Figure 3f (SPR response) (S55746 concentration 40, BCL-2 concentration 9 nM, independent experiment 2): 9.582
Raw data values in Figure 3f (SPR response) (S55746 concentration 40, BCL-2 concentration 10 nM, independent experiment 1): 5.808
Raw data values in Figure 3f (SPR response) (S55746 concentration 40, BCL-2 concentration 10 nM, independent experiment 3): 2.581
Raw data values in Figure 3f (SPR response) (S55746 concentration 40, BCL-2 concentration 11 nM, independent experiment 2): 11.5501
Raw data values in Figure 3f (SPR response) (S55746 concentration 40, BCL-2 concentration 12 nM, independent experiment 2): 13.3285
Raw data values in Figure 3f (SPR response) (S55746 concentration 40, BCL-2 concentration 16 nM, independent experiment 2): 18.1319
Raw data values in Figure 3f (SPR response) (S55746 concentration 40, BCL-2 concentration 20 nM, independent experiment 1): 14.077
Raw data values in Figure 3f (SPR response) (S55746 concentration 40, BCL-2 concentration 20 nM, independent experiment 3): 5.653
Raw data values in Figure 3f (SPR response) (S55746 concentration 40, BCL-2 concentration 24 nM, independent experiment 2): 35.953
Raw data values in Figure 3f (SPR response) (S55746 concentration 40, BCL-2 concentration 30 nM, independent experiment 1): 36.4319
Raw data values in Figure 3f (SPR response) (S55746 concentration 40, BCL-2 concentration 30 nM, independent experiment 3): 15.4804
Raw data values in Figure 3f (SPR response) (S55746 concentration 40, BCL-2 concentration 40 nM, independent experiment 1): 75.4873
